Assay results: patent US20200392161A1, “SHP2 PHOSPHATASE INHIBITORS AND METHODS OF USE THEREOF” (Relay Therapeutics, Inc., priority 2018, published 2020)
Counter-ions that a name gives are not always drawn.

Molecular target: T1, SHP2 (Homo sapiens, UniProt Q06124)
T1 sequence (Q06124 1-593): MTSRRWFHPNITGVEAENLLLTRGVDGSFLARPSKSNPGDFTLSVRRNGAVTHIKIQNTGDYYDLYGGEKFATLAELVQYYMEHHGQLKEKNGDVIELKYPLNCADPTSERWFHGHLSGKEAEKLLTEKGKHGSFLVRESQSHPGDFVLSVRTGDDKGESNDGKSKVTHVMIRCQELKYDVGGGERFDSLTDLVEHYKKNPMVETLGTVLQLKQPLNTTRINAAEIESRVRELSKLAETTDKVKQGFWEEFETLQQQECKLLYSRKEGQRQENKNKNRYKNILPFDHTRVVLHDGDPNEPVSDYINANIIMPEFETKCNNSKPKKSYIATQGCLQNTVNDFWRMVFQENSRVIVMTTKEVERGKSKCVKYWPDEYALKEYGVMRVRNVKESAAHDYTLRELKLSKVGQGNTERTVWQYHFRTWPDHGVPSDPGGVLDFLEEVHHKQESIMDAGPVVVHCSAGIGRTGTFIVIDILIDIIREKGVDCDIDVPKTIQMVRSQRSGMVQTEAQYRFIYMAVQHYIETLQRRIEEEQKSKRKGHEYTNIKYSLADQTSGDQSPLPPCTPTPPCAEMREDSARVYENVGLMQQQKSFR
Test: SHP2 allosteric inhibition assay (DiFMUP prompt fluorescence)
Type: biochemical
Conditions: 0.25 nM SHP2, 0.5 μM IRS1_pY1172(dPEG8)pY1222 peptide, DiFMUP 100 μM
Excerpt: SHP2 Allosteric Inhibition Assay.
SHP2 is allosterically activated through binding of bis-tyrosyl-phosphorylated peptides to its Src Homology 2 (SH2) domains. The latter activation step leads to the release of the auto-inhibitory interface of SHP2, which in turn renders the SHP2 protein tyrosine phosphatase (PTP) active and available for substrate recognition and reaction catalysis. The catalytic activity of SHP2 was monitored using the surrogate substrate DiFMUP in a prompt fluorescence assay format.
The inhibitor dose response curves were analyzed using normalized IC50 regression curve fitting with control based normalization.

Row | SMILES | IC50 (Table 3) | other results
1 | CC1(N)CCCN(c2nn3c(N)c(-c4cccc(Cl)c4Cl)nc3s2)C1 (centres unmarked) [Compound A1, 2-(3-amino-3-methylpiperidin-1-yl)-6-(2,3-dichlorophenyl)imidazo[2,1-b][1,3,4]thiadiazol-5-amine formate] | – | IC50 (Table 1): < 5 µM
2 | CC1(CN)CCN(c2nn3cc(-c4cccc(Cl)c4Cl)nc3s2)CC1 [Compound A2, (1-(6-(2,3-dichlorophenyl)imidazo[2,1-b][1,3,4]thiadiazol-2-yl)-4-methylpiperidin-4-yl)methanamine formate] | – | IC50 (Table 1): 5 to 20 µM
3 | Nc1c(-c2cccc(Cl)c2Cl)nc2sc(N3C[C@@H]4[C@@H](N)[C@@H]4C3)nn12 [Compound A3] | – | IC50 (Table 1): < 5 µM
4 | CC1(N)CCN(c2nn3c(N)c(-c4cccc(Cl)c4Cl)nc3s2)CC1 [Compound A4, 2-(4-amino-4-methylpiperidin-1-yl)-6-(2,3-dichlorophenyl)imidazo[2,1-b][1,3,4]thiadiazol-5-amine formate] | – | IC50 (Table 1): > 20 µM
5 | CC1(CN)CCN(c2nn3c(N)c(-c4cccc(Cl)c4Cl)nc3s2)C1 (centres unmarked) [Compound A5, 2-(3-(aminomethyl)-3-methylpyrrolidin-1-yl)-6-(2,3-dichlorophenyl)imidazo[2,1-b][1,3,4]thiadiazol-5-amine] | – | IC50 (Table 1): < 5 µM
6 | CC1(CN)CCN(c2nn3c(N)c(-c4ccccc4Cl)nc3s2)C1 (centres unmarked) [Compound A6, 2-(3-(aminomethyl)-3-methylpyrrolidin-1-yl)-6-(2-chlorophenyl)imidazo[2,1-b][1,3,4]thiadiazol-5-amine] | – | IC50 (Table 1): 5 to 20 µM
7 | Cc1c(-c2ccccc2Cl)nc2sc(N3CCC(C)(CN)CC3)nn12 [Compound A7, (1-(6-(2-chlorophenyl)-5-methylimidazo[2,1-b][1,3,4]thiadiazol-2-yl)-4-methylpiperidin-4-yl)methanamine formate] | – | IC50 (Table 1): < 5 µM
8 | CC1(CN)CCN(c2nn3cc(C(=O)N4CCCc5ncccc54)nc3s2)C1 (centres unmarked) [Compound A8, (2-(3-(aminomethyl)-3-methylpyrrolidin-1-yl)imidazo[2,1-b][1,3,4]thiadiazol-6-yl)(3,4-dihydro-1,5-naphthyridin-1(2H)-yl)methanone formate] | – | IC50 (Table 1): > 20 µM
9 | CC1(CN)CCN(c2nn3c(N)c(-c4cccc(Cl)c4Cl)nc3s2)CC1 [Compound A9, 2-(4-(aminomethyl)-4-methylpiperidin-1-yl)-6-(2,3-dichlorophenyl)imidazo[2,1-b][1,3,4]thiadiazol-5-amine formate] | – | IC50 (Table 1): 5 to 20 µM
10 | Cc1c(-c2ccccc2Cl)nc2sc(N3CCC(C)(CN)C3)nn12 (centres unmarked) [Compound A10, (1-(6-(2-chlorophenyl)-5-methylimidazo[2,1-b][1,3,4]thiadiazol-2-yl)-3-methylpyrrolidin-3-yl)methanamine formate] | – | IC50 (Table 1): < 5 µM
11 | Cc1c(-c2ccccc2Cl)nc2sc(N3CCC(C)(N)C3)nn12 (centres unmarked) [Compound A11, 1-(6-(2-chlorophenyl)-5-methylimidazo[2,1-b][1,3,4]thiadiazol-2-yl)-3-methylpyrrolidin-3-amine formate] | – | IC50 (Table 1): < 5 µM
12 | Nc1c(-c2cccc(Cl)c2Cl)nc2sc(N3CCNCC3)nn12 [Compound A12, 6-(2,3-dichlorophenyl)-2-(piperazin-1-yl)imidazo[2,1-b][1,3,4]thiadiazol-5-amine] | – | IC50 (Table 1): > 20 µM
13 | CC1(N)CCN(c2nc(N)c(-c3cccc(Cl)c3Cl)s2)CC1 [Compound B1, 2-(4-amino-4-methyl-1-piperidyl)-5-(2,3-dichlorophenyl)thiazol-4-amine, dihydrochloride] | – | IC50 (Table 2): < 100 µM
14 | CC1(CN)CCN(c2ncc(C(=O)N3CCCc4ncccc43)s2)C1 (centres unmarked) [Compound B2, (2-(3-(aminomethyl)-3-methylpyrrolidin-1-yl)thiazol-5-yl)(3,4-dihydro-1,5-naphthyridin-1(2H)-yl)methanone] | – | IC50 (Table 2): > 100 µM
15 | CC1(CN)CCN(c2ncc(-c3ccccc3Cl)s2)C1 (centres unmarked) [Compound B3, (1-(5-(2-chlorophenyl)thiazol-2-yl)-3-methylpyrrolidin-3-yl)methanamine formate] | – | IC50 (Table 2): > 100 µM
16 | Cc1nc(N2CCC(C)(CN)C2)sc1-c1ccccc1Cl (centres unmarked) [Compound B4, ((1-(5-(2-chlorophenyl)-4-methylthiazol-2-yl)-3-methylpyrrolidin-3-yl)methanamine formate] | – | IC50 (Table 2): > 100 µM
17 | CC1(N)CCN(C(=O)c2csc(-c3ccccc3Cl)n2)CC1 [Compound C1, (4-amino-4-methylpiperidin-1-yl)(2-(2-chlorophenyl)thiazol-4-yl)methanone formate] | < 500 µM | –
18 | O=C(O)c1csc(-c2cccc3ccccc23)n1 [Compound C2] | < 500 µM | –
19 | O=C(Nc1cc(C(F)(F)F)cc(C(F)(F)F)c1)c1csc(-c2cccc(Cl)c2Cl)n1 [Compound C3] | 500 to 1000 µM | –
20 | O=C(O)c1csc(-c2ccc(Cl)cc2Cl)n1 [Compound C5] | 500 to 1000 µM | –

Row | SMILES | IC50 (Table 3) | other results
21 | c1coc(-c2nc(CSc3nncs3)cs2)c1 [Compound C8] | 500 to 1000 µM | –
22 | COc1cccc(-c2nc(CSc3nncs3)cs2)c1 [Compound C9] | 500 to 1000 µM | –
23 | COc1ccc(-c2nc(CSc3nccn3C3CC3)cs2)cc1OC [Compound C12] | < 500 µM | –
24 | c1nnc(SCc2csc(-c3ccc4c(c3)OCO4)n2)s1 [Compound C13] | < 500 µM | –
25 | COc1ccc(-c2nc(CSc3nnc(NCC4CCCO4)s3)cs2)cc1OC (centres unmarked) [Compound C19] | 500 to 1000 µM | –
26 | COc1cc(-c2nc(CN3CCOCC3C)cs2)ccc1O (centres unmarked) [Compound C22] | > 1000 µM | –
27 | c1cc(-c2nc(CSc3nncs3)cs2)co1 [Compound C24] | > 1000 µM | –
28 | COc1ccc(-c2nc(CSc3nnnn3C3CC3)cs2)cc1OC [Compound C25] | > 1000 µM | –
29 | Cn1cnnc1SCc1csc(-c2ccc3c(c2)OCO3)n1 [Compound C26] | > 1000 µM | –
30 | Clc1ccc(-c2nc(CSc3nncs3)cs2)cc1 [Compound C27] | > 1000 µM | –
31 | COc1ccc(-c2nc(CSc3nncs3)cs2)cc1 [Compound C28] | > 1000 µM | –
32 | CCC(=O)N(c1nnc(SCc2csc(-c3ccc(OC)c(OC)c3)n2)s1)C1CC1 [Compound C31] | > 1000 µM | –
33 | COc1ccc(-c2nc(CSc3nnc(N(C(C)=O)C4CC4)s3)cs2)cc1OC [Compound C38] | > 1000 µM | –
34 | c1ccc(-c2nc(CSc3nncs3)cs2)cc1 [Compound C40] | > 1000 µM | –
35 | O=C(O)Cc1csc(-c2cccc(Cl)c2Cl)n1 [Compound C41] | > 1000 µM | –
36 | O=C(O)c1csc(-c2ccccc2Cl)n1 [Compound C42] | > 1000 µM | –
37 | O=C(O)c1csc(-c2ncccc2Cl)n1 [Compound C43] | > 1000 µM | –
38 | Cc1nc(-c2ccc(C(F)(F)F)cc2)sc1C(=O)N1CC[C@@H](N)C1 [Compound C44] | > 1000 µM | –
39 | CNCC1CCN(C(=O)Cc2csc(-c3ccc(Cl)cc3Cl)n2)C1 (centres unmarked) [Compound C45] | > 1000 µM | –
40 | COc1ccccc1-c1nc(C(=O)N2CCCC(C(C)N)C2)cs1 (centres unmarked) [Compound C46] | > 1000 µM | –

The next lines start with results.

Row | IC50 (Table 3) | SMILES | other results
41 | < 500 µM | COc1cc(-c2nc(CSc3nncs3)cs2)ccc1O [Compound C4] | –
42 | 500 to 1000 µM | COc1ccc(-c2nc(CSc3nnnn3C)cs2)cc1OC [Compound C6] | –
43 | 500 to 1000 µM | COc1ccc(-c2nc(CSc3ncccn3)cs2)cc1OC [Compound C7] | –
44 | 500 to 1000 µM | COc1ccc(-c2nc(CSc3nnc(C4CC4)n3N)cs2)cc1OC [Compound C10] | –
45 | < 500 µM | COc1cc(-c2nc(CN(C)c3ccc4c(c3)OCO4)cs2)ccc1O [Compound C11] | –
46 | < 500 µM | COCCn1cnnc1SCc1csc(-c2ccc(OC)c(OC)c2)n1 [Compound C15] | –
47 | < 500 µM | COc1ccc(-c2nc(CSc3cccc[n+]3[O-])cs2)cc1OC [Compound C16] | –
48 | 500 to 1000 µM | COc1cc(-c2nc(CSc3nnc(-c4ccccc4C)n3C)cs2)ccc1O [Compound C18] | –
49 | < 500 µM | COc1cc(-c2nc(CSc3nncn3C)cs2)ccc1O [Compound C20] | –
50 | < 500 µM | COc1cc(-c2nc(Cn3cccc(C(F)(F)F)c3=O)cs2)ccc1O [Compound C21] | –
51 | > 1000 µM | CCOc1ccc(-c2nc(CSc3nncs3)cs2)cc1OC [Compound C23] | –
52 | > 1000 µM | COc1ccc(-c2nc(CSc3nncn3-c3ccccc3)cs2)cc1OC [Compound C29] | –
53 | > 1000 µM | COc1ccc(-c2nc(CSc3nnc(-c4ccco4)o3)cs2)cc1OC [Compound C30] | –
54 | > 1000 µM | COc1ccc(-c2nc(CSc3nc4nc(C)cc(C)n4n3)cs2)cc1OC [Compound C32] | –
55 | > 1000 µM | C=C(C)CSc1nnc(SCc2csc(-c3ccc(OC)c(OC)c3)n2)s1 [Compound C33] | –
56 | > 1000 µM | COc1cc(-c2nc(CSc3nnc(-c4ccc(C)cc4C)o3)cs2)ccc1O [Compound C34] | –
57 | > 1000 µM | CCOc1ccc(-c2nc(CSc3nnc(C)s3)cs2)cc1OC [Compound C36] | –
58 | > 1000 µM | COc1cc(-c2nc(CN(C)Cc3ccco3)cs2)ccc1O [Compound C37] | –
59 | > 1000 µM | COc1cccc(Nc2nnc(SCc3csc(-c4ccc(OC)c(OC)c4)n3)s2)c1 [Compound C39] | –
